Consider ten compounds from US7666901B2, “Analogs of 17-hydroxywortmannin as PI3K inhibitors” (Wyeth, priority 2004, dated 2010).

The subject of assay [1] is DU145 (human prostate carcinoma/lymphocytic leukemia). The assay is described as follows: Cell proliferation (MTS) assay, DU145. Type of assay: cell-based. The conditions noted are these: Homo sapiens, DU-145, 72 h, Table 2; three days treatment. In short, it runs like this: (§1)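 Cells plated at about 3000 per well in RPMI-1640/10% FBS were dosed with compound one day later. Viability was read by MTS conversion (absorbance 490 nm, 1–2 h) three days after treatment began. Effect is expressed as percent of vehicle-treated growth on the same plate.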

The subject of assay [2] is MDA468 (human breast cancer cell). The assay is described as follows: Cell proliferation (MTS) assay, MDA468. Format: cell-based. As to conditions: Homo sapiens, 72 h, Table 2; three days treatment. In short, it runs like this: as §1
The test system of assay [3] is LNCaP (human prostate carcinoma). The assay is described as follows: Cell proliferation (MTS) assay, LNCaP. Format: cell-based. As to conditions: Homo sapiens, LNCaP, 72 h, Table 2; three days treatment. In a few lines:
as §1

The test system of another assay is T1, PI3K.
T1 construct: PI3K FP IC50
The assay is described as follows: Fluorescence polarization assay for PI3K. Format: biochemical. The conditions noted are these: Table 2. In a few lines:
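PI3K was preincubated with compound at 1% DMSO final, then reacted with PIP2/ATP substrate for 30-60 min. The reaction was stopped with a detector mix giving 10 nM red probe and 70 nM GST-GRP. Fluorescence polarization (mP, Tamra filters) was read 30-90 min later and IC50 determined.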
In general terms: Fluorescence polarisation rises when a labelled molecule tumbles more slowly, as on binding a larger partner.

In assay [4] the test system is phosphor-AKT (S473) in Rat1 cells. Briefly: Rat1-IGF1 assay (IGF-1 induced phospho-AKT immunoblot). Format: cell-based, rat. The conditions noted are these: Rattus norvegicus, Table 2. In a few lines: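 After 24 h serum starvation, Rat1 cells got vehicle or varying 17-HWT concentrations for 2 hours, then IGF-1 (100 ng/mL) for 30 minutes. Lysates immunoblotted for phospho-AKT (S473) and total AKT.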
For orientation: A western blot detects proteins with antibodies after separation by electrophoresis.

Assay [5] deals with MDA435 (human breast adenocarcinoma). The assay is described as follows: Cell proliferation (MTS) assay, MDA435. Type of assay: cell-based. The conditions noted are these: Homo sapiens, MDA435, 72 h, Table 2; three days treatment. In short, it runs like this: as §1
A further assay deals with T2, Human TOR (Homo sapiens, UniProt P42345).
T2 construct: FLAG
The assay is described as follows: Human TOR (mTOR) kinase assay, DELFIA format. Type of assay: biochemical. The conditions noted are these: Table 2. In a few lines:
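Purified FLAG-TOR (800 ng/mL) phosphorylates His6-S6K ([…]) with […] ATP in Hepes pH 7.4 buffer containing MnCl2, 2 h at room temperature. Phospho-Thr389 S6K detected by DELFIA using Europium-labelled anti-P(T389)-p70S6K antibody; enzyme inhibition calculated from signal.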

≈ marks a conversion by molar mass, not a printed value. Some results are limits rather than exact numbers.

One may read the IC50 as the midpoint of a concentration-inhibition curve. In the case of `COCC1OC(=O)C(=CN2CCC(C(=O)O)CC2)C2=C(O)C(=O)C3=C(C(OC(C)=O)CC4(C)C(O)CCC34)C21C` (stereo not shown) [Compound 23, 1-(11-Acetoxy-6,17-dihydroxy-1-methoxymethyl-10,13-dimethyl-3,7-dioxo-1,7,10,11,12,13,14,15,16,17-decahydro-2-oxa-cyclopenta[a]phenanthren-4-ylidenemethyl)-piperidine-4-carboxylic acid], the half-maximal inhibitory concentration (IC50) in assay [1] turned out to be 17 µg/mL (≈ 30.4 µM); in assay [2], 4 µg/mL (≈ 7.15 µM); in assay [3] it was 0.28 µg/mL (≈ 0.5 µM); with PI3K, 0.033 µM; in assay [4], 0.1 µg/mL (≈ 0.179 µM); in assay [5], 17 µg/mL (≈ 30.4 µM). At Human TOR, this compound showed a half-maximal inhibitory concentration (IC50) of 0.822 µM.
As for `COCC1OC(=O)C(=CN(C)C(C=C(C)C(=O)OC)C(C)C)C2=C(O)C(=O)C3=C(C(OC(C)=O)CC4(C)C(O)CCC34)C21C` (stereo not shown) [Compound 24, 4-[(11-Acetoxy-6,17-dihydroxy-1-methoxymethyl-10,13-dimethyl-3,7-dioxo-1,7,10,11,12,13,14,15,16,17-decahydro-2-oxa-cyclopenta[a]phenanthren-4-ylidenemethyl)-methyl-amino]-2,5-dimethyl-hex-2-enoic acid methyl ester], the IC50 in assay [1] is 4 µg/mL (≈ 6.5 µM); in assay [2], 1.05 µg/mL (≈ 1.71 µM); in assay [3], 0.13 µg/mL (≈ 0.211 µM); in the assay with PI3K it was 5.4 µM; in assay [4], over 0.1 µg/mL; in assay [5] it was 10.1 µg/mL (≈ 16.3 µM). The same compound came in with an IC50 at Human TOR of over 16.2 µM.
Turning to `COCC1OC(=O)C(=CN(C)CCCN2CCN(c3ccc(OC)cc3)CC2)C2=C(O)C(=O)C3=C(C(OC(C)=O)CC4(C)C(O)CCC34)C21C` (stereo not shown) [Compound 25, Acetic acid 6,17-dihydroxy-1-methoxymethyl-4-[({3-[4-(4-methoxy-phenyl)-piperazin-1-yl]-propyl}-methyl-amino)-methylene]-10,13-dimethyl-3,7-dioxo-1,3,4,7,10,11,12,13,14,15,16,17-dodecahydro-2-oxa-cyclopenta[a]phenanthren-11-yl ester], the IC50 in assay [1] worked out at 20.5 µg/mL (≈ 29.5 µM); in assay [2] it was 4.3 µg/mL (≈ 6.2 µM); in assay [3], 0.43 µg/mL (≈ 0.62 µM); in the assay on PI3K, 0.015 µM; in assay [4] it was 0.02 µg/mL (≈ 0.0288 µM); in assay [5], 16 µg/mL (≈ 23.1 µM). Also, 1.35 µM corresponded to half-maximal inhibition against Human TOR (IC50).
For the compound `COCC1OC(=O)C(=CN(C)CCCN2CCN(C)CC2)C2=C(O)C(=O)C3=C(C(OC(C)=O)CC4(C)C(O)CCC34)C21C` (stereo not shown) [Compound 26, Acetic acid 6,17-dihydroxy-1-methoxymethyl-10,13-dimethyl-4-({methyl-[3-(4-methyl-piperazin-1-yl)-propyl]-amino}-methylene)-3,7-dioxo-1,3,4,7,10,11,12,13,14,15,16,17-dodecahydro-2-oxa-cyclopenta[a]phenanthren-11-yl ester], the IC50 worked out at 17 µg/mL (≈ 28.3 µM) in assay [1]; 3.9 µg/mL (≈ 6.48 µM) in assay [2]; 0.28 µg/mL (≈ 0.465 µM) in assay [3]; 0.019 µM in the assay with PI3K; 0.02 µg/mL (≈ 0.0332 µM) in assay [4]; 21 µg/mL (≈ 34.9 µM) in assay [5]. The compound further gave an IC50 against Human TOR of 2.33 µM.
With `COCC1OC(=O)C(=CN(C)CCCN2CCOCC2)C2=C(O)C(=O)C3=C(C(OC(C)=O)CC4(C)C(O)CCC34)C21C` (stereo not shown) [Compound 27, Acetic acid 6,17-dihydroxy-1-methoxymethyl-10,13-dimethyl-4-{[methyl-(3-morpholin-4-yl-propyl)-amino]-methylene}-3,7-dioxo-1,3,4,7,10,11,12,13,14,15,16,17-dodecahydro-2-oxa-cyclopenta[a]phenanthren-11-yl ester], the 50% inhibitory concentration (IC50) in assay [1] worked out at 23 µg/mL (≈ 39.1 µM); in assay [2] it was 5 µg/mL (≈ 8.49 µM); in assay [3], 0.35 µg/mL (≈ 0.595 µM); in the assay on PI3K, 0.024 µM; in assay [4], 0.1 µg/mL (≈ 0.17 µM); in assay [5], 30 µg/mL (≈ 51 µM). This compound also gave an IC50 against Human TOR of 2.29 µM.
For `CCN(CC)CCCN(C=C1C(=O)OC(COC)C2(C)C1=C(O)C(=O)C1=C2C(OC(C)=O)CC2(C)C(O)CCC12)CCS(=O)(=O)c1ccccc1` (stereo not shown) [Compound 28, Acetic acid 4-{[(2-benzenesulfonyl-ethyl)-(3-diethylamino-propyl)-amino]-methylene}-6,17-dihydroxy-1-methoxymethyl-10,13-dimethyl-3,7-dioxo-1,3,4,7,10,11,12,13,14,15,16,17-dodecahydro-2-oxa-cyclopenta[a]phenanthren-11-yl ester], the IC50 in assay [1] was 8.5 µg/mL (≈ 11.7 µM); in assay [2], 3 µg/mL (≈ 4.12 µM); in assay [3] it was 0.12 µg/mL (≈ 0.165 µM); in the assay on PI3K, 0.131 µM; in assay [4], over 0.1 µg/mL; in assay [5] it was 11 µg/mL (≈ 15.1 µM). The concentration for half-maximal inhibition (IC50) against Human TOR was over 13.7 µM.
Take `COCC1OC(=O)C(=CN(Cc2ccccc2)CC23CCCN(CCC2)C3)C2=C(O)C(=O)C3=C(C(OC(C)=O)CC4(C)C(O)CCC34)C21C` (stereo not shown) [Compound 29, Acetic acid 4-{[(1-aza-bicyclo[3.3.1]non-5-ylmethyl)-benzyl-amino]-methylene}-6,17-dihydroxy-1-methoxymethyl-10,13-dimethyl-3,7-dioxo-1,3,4,7,10,11,12,13,14,15,16,17-dodecahydro-2-oxa-cyclopenta[a]phenanthren-11-yl ester]: the IC50 in assay [1] was 30 µg/mL (≈ 44.5 µM); in assay [2], 15 µg/mL (≈ 22.2 µM); in assay [3] it was 1.8 µg/mL (≈ 2.67 µM); in the assay on PI3K it was 0.373 µM; in assay [4] it was over 0.1 µg/mL; in assay [5] it was over 30 µg/mL. The compound further gave an IC50 at Human TOR of over 14.8 µM.
In the case of `COCC1OC(=O)C(=CN2CCN(CCCN3CCOCC3)CC2)C2=C(O)C(=O)C3=C(C(OC(C)=O)CC4(C)C(O)CCC34)C21C` (stereo not shown) [Compound 30, Acetic acid 6,17-dihydroxy-1-methoxymethyl-10,13-dimethyl-4-[4-(3-morpholin-4-yl-propyl)-piperazin-1-ylmethylene]-3,7-dioxo-1,3,4,7,10,11,12,13,14,15,16,17-dodecahydro-2-oxa-cyclopenta[a]phenanthren-11-yl ester], the IC50 in assay [1] is 21 µg/mL (≈ 32.6 µM); in assay [2], 4 µg/mL (≈ 6.21 µM); in assay [3] it was 0.41 µg/mL (≈ 0.637 µM); with PI3K it was 0.046 µM; in assay [4], 0.02 µg/mL (≈ 0.0311 µM); in assay [5], 21 µg/mL (≈ 32.6 µM). Half-maximal inhibition against Human TOR (IC50) was put at 1.2 µM.
Consider `COCC1OC(=O)C(=CN(C)CCN(C)C)C2=C(O)C(=O)C3=C(C(OC(C)=O)CC4(C)C(O)CCC34)C21C` (stereo not shown) [Compound 31, Acetic acid 4-{[(2-dimethylamino-ethyl)-methyl-amino]-methylene}-6,17-dihydroxy-1-methoxymethyl-10,13-dimethyl-3,7-dioxo-1,3,4,7,10,11,12,13,14,15,16,17-dodecahydro-2-oxa-cyclopenta[a]phenanthren-11-yl ester], for which the IC50 in assay [1] turned out to be 21 µg/mL (≈ 39.4 µM); in assay [2], 4 µg/mL (≈ 7.51 µM); in assay [3], 0.4 µg/mL (≈ 0.751 µM); with PI3K, 0.009 µM; in assay [4], 0.1 µg/mL (≈ 0.188 µM); in assay [5], 23 µg/mL (≈ 43.2 µM). On Human TOR, this compound gave an IC50 of 1.28 µM.
In the case of `COCC1OC(=O)C(=CN2CCN(CCCN(C)C)CC2)C2=C(O)C(=O)C3=C(C(OC(C)=O)CC4(C)C(O)CCC34)C21C` (stereo not shown) [Compound 32, Acetic acid 4-[4-(3-dimethylamino-propyl)-piperazin-1-ylmethylene]-6,17-dihydroxy-1-methoxymethyl-10,13-dimethyl-3,7-dioxo-1,3,4,7,10,11,12,13,14,15,16,17-dodecahydro-2-oxa-cyclopenta[a]phenanthren-11-yl ester], the IC50 in assay [1] turned out to be 20 µg/mL (≈ 33.2 µM); in assay [2], 4.1 µg/mL (≈ 6.81 µM); in assay [3], 0.5 µg/mL (≈ 0.831 µM); in the assay with PI3K, 0.039 µM; in assay [4], 0.1 µg/mL (≈ 0.166 µM); in assay [5], 22 µg/mL (≈ 36.6 µM). The compound further showed an IC50 on Human TOR of 0.249 µM.
